The target of data set [1] is PDK-1 (Homo sapiens, UniProt Q15118). The experiment in a line: PDK-1 fluorescence polarization assay (fluorescein-labelled ATP site probe). In kind it is binding. Also noted: PDK-1: residues 30-436; made in house; host or cells: E. coli BL21. The note with it: titration with a probe concentration of 10 nM; read-out: Kd of PDK-1 protein with the probe. As to the method: carbamoyl]-2-(6-hydroxy-3-oxo-3H-xanthen-9-yl)benzoic acid), which binds to the ATP site of PDK resulting in an increase in anisotropy.
Sequence of PDK-1 (Q15118 30-436): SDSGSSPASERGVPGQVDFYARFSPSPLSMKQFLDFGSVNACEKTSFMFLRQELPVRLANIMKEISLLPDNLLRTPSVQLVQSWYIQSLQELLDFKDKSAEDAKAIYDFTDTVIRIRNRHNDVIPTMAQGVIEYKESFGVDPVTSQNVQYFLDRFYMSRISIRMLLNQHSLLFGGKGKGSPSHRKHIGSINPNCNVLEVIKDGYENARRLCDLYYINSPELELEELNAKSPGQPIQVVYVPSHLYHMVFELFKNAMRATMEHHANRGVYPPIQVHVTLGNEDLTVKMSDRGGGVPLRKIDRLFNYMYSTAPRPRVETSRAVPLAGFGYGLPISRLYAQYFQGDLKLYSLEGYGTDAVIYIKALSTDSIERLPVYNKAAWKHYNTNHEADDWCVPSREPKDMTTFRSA
The HSP-90ß FP assay was conducted as previously described.

The test system of data set [2] is PDK. The note with it: stated in discussion, no own experiment; cited from earlier work.

Turning to `CCNC(=O)c1noc(-c2cc(Cl)c(O)cc2O)c1-c1ccc(CNC(=O)c2ccc(-c3c4ccc(=O)cc-4oc4cc(O)ccc34)c(C(=O)O)c2)cc1` [VER-160364, 5-[({4-[5-(5-chloro-2,4-dihydroxyphenyl)-3-(ethylcarbamoyl)-1,2-oxazol-4-yl]phenyl}methyl)carbamoyl]-2-(6-hydroxy-3-oxo-3H-xanthen-9-yl)benzoic acid], the dissociation constant Kd in data set [1] stood at 0.03 µM. For `O=C(O)C(Cl)Cl` [DCA], in data set [2], the “Concentrations required to observe modulation of glycolytic activity and cytotoxicity” value was 5000 to 20000 µM.

Values taken from PMC4350332 (Oncotarget, 2014).
